Experimental data from patent EP0097633B1, “Determination of the sensitivity of virus to antiviral agents” (Wahren, Britta, priority 1982, dated 1984).

Experiments:
[1] = system: HSV; test: Virus sensitivity assay (VSA): HSV patient material replicated in HL-cells with antiviral agent, cell disruption, virus antigen by ELISA sandwich technique (Example 1); assay type: cell-based, herpes simplex virus (HSV); conditions: for absorbance (A) at 405 nm: disrupted cells, culture of 1 to 3 days; for sensitivity of the investigated HSV to the antiviral agent: read from Fig. 1
Experimental: A material from a patient containing living HSV is mixed with a small amount of Eagle's tissue culture medium containing 2% of calf serum, 100 IE penicillin/ml and 100 […] of streptomycin/ml, after which the virus mixture is diluted 1:30 in this medium.
(§1) Sterile plastic plates comprising 24 wells, each having a culture surface of 2.5 cm^2 and containing about 5 x 10^5 HL-cells/well were inoculated with 0.1 ml of virus dilutions as above. Such of the above virus dilutions only containing a small amount of virus are first cultured for 3 days in HL-cells, on which virus replicates, after which the virus isolate from one cell passage is taken out, is diluted 1:30 and 0.1 ml of the dilutions is added to the plates as indicated above. The cells are then incubated at a temperature of 32-37°C, with addition of different antiviral agents, and without any addition of antiviral agent to obtain reference values. Each antiviral agent is added in a dilution series comprising six different concentrations (Cl-C6), some of which correspond to desired serum concentrations for the treatment of patients. In table 1 is indicated the antiviral agents and concentrations thereof used.
As a background control of virus replication taking place and for a direct typing of virus 2 cell containing wells/plate are inoculated with a mixture of 0.1 ml virus dilution and 0.05 ml of Brij-58 of 1%.
After a culture of 1 to 3 days the effect of the antiviral agents is then evaluated by measurement with ELISA sandwich technique as described below. However, the cells are treated in the following way before this measurement.
(§2) The supernatant is sucked off and in order to achieve cell disrupture 800 µl of distilled water are added to the cells on the plates. The plates are frozen at -20°C and after some time sufficient for formation of ice crystals (about 15 min) the plates are thawed to room temperature for measurement of virus antigen. If desired, the plates can be preserved in a frozen state for a long time before they are thawed in order to carry out the measurement of virus antigen. When the plates have thawed 200 µl of NaCI of 4.5% are added to the cells in order to obtain an isotonic solution.
The amount of virus antigen formed is thereafter determined as follows. Guinea pig anti-HSV-serum is diluted in 0.1-M sodium carbonate buffer. 0.1 ml of the serum dilution is filled per well in microplates (M 29 AR, Dynatech, Zug, Switzerland) which have been washed three times with NaCI-solution of 0.9% containing 0.05% of Tween® 20, after which the plates are incubated for 16 hours at room temperature. The plates can be preserved sealed with their contents at +4°C up to 2-3 months. The optimal antibody concentration has been determined by antibody titration with the respective antigen and control antigen.
0.1 ml of the cell material obtained above or a known virus antigen is filled into plates treated with antibody and is incubated for 4 hours at +4°C. After washing with the washing solution indicated above 0.1 ml of rabbit anti-HSV is added and the plates are incubated for 2 hours at +37°C. The plates are washed and 0.1 ml of conjugate is added, after which they are incubated for 2 hours at +37°C. The conjugate consists of pig anti-rabbit IgG conjugated with alkaline phosphatase (Orion Diagnostica, Helsinki, Finland) in a dilution of 1:100. Non-bonded conjugate is washed off before 100 pl of the substrate p-nitrophenyl phosphate (1 mg/ml, Sigma, St Louis, MO, USA) are added. For dilution of the substrate 1 M diethanol buffer, pH 9.8 containing 0.5 x 10-^3 M MgC12 is used and for dilution of antisera and conjugate phosphate buffer (PBS), pH 7.3-7.4 with 0.5% of Tween® 20, 0.5% of BSA (bovine serum albumin) and 0.02% of NaN3 is used. The reaction is stopped after 20-60 min with 0.025 ml of 5 M NaOH. The absorbance (A) is thereafter read at 405 nm with Titertek Multiskan® (Flow Laboratories, Irvine, Scotland). […]

[2] = system: virus isolate from an eye IDU treated with without result; test: VSA on a virus isolate from an eye treated with IDU without result (Example 3); assay type: cell-based
Experimental: as §1, §2
The amount of virus antigen formed is thereafter determined as follows. Guinea pig anti-HSV-serum is diluted in 0.1-M sodium carbonate buffer. 0.1 ml of the serum dilution is filled per well in microplates (M 29 AR, Dynatech, Zug, Switzerland) which have been washed three times with NaCI-solution of 0.9% containing 0.05% of Tween® 20, after which the plates are incubated for 16 hours at room temperature. The plates can be preserved sealed with their contents at +4°C up to 2-3 months.
0.1 ml of the cell material obtained above or a known virus antigen is filled into plates treated with antibody and is incubated for 4 hours at +4°C. After washing with the washing solution indicated above 0.1 ml of rabbit anti-HSV is added and the plates are incubated for 2 hours at +37°C. The plates are washed and 0.1 ml of conjugate is added, after which they are incubated for 2 hours at +37°C. The conjugate consists of pig anti-rabbit IgG conjugated with alkaline phosphatase (Orion Diagnostica, Helsinki, Finland) in a dilution of 1:100. Non-bonded conjugate is washed off before 100 pl of the substrate p-nitrophenyl phosphate (1 mg/ml, Sigma, St Louis, MO, USA) are added. For dilution of the substrate 1 M diethanol buffer, pH 9.8 containing 0.5 x 10-^3 M MgC12 is used and for dilution of antisera and conjugate phosphate buffer (PBS), pH 7.3-7.4 with 0.5% of Tween® 20, 0.5% of BSA (bovine serum albumin) and 0.02% of NaN3 is used. The reaction is stopped after 20-60 min with 0.025 ml of 5 M NaOH. The absorbance (A) is thereafter read at 405 nm with Titertek Multiskan® (Flow Laboratories, Irvine, Scotland).

[3] = serum; desired concentrations for the treatment of patients; cited from earlier work
[4] = C1: Ara-A 5, ACV 0.15, PFA 25, IDU 0.5 μM, C0 (no agent) 1.425
[5] = C2: Ara-A 10, ACV 0.31, PFA 50, IDU 1 μM, C0 1.425
[6] = C3: Ara-A 20, ACV 0.63, PFA 100, IDU 2 μM, C0 1.425
[7] = C4: Ara-A 40, ACV 1.25, PFA 200, IDU 4 μM, C0 1.425
[8] = C5: Ara-A 80, ACV 2.5, PFA 400, IDU 8 μM, C0 1.425
[9] = C6: Ara-A 160, ACV 5, PFA 800, IDU 16 μM, C0 1.425
[10] = C1: Ara-A 5, ACV 0.15, PFA 25, IDU 0.5 μM, C0 (no agent) 1.605
[11] = C2: Ara-A 10, ACV 0.31, PFA 50, IDU 1 μM, C0 1.605
[12] = C3: Ara-A 20, ACV 0.63, PFA 100, IDU 2 μM, C0 1.605
[13] = C4: Ara-A 40, ACV 1.25, PFA 200, IDU 4 μM, C0 1.605
[14] = C5: Ara-A 80, ACV 2.5, PFA 400, IDU 8 μM, C0 1.605
[15] = C6: Ara-A 160, ACV 5, PFA 800, IDU 16 μM, C0 1.605

| Structure (SMILES) | absorbance (A) at 405 nm [1, 4] | absorbance (A) at 405 nm [1, 5] | absorbance (A) at 405 nm [1, 6] | absorbance (A) at 405 nm [1, 7] | absorbance (A) at 405 nm [1, 8] | absorbance (A) at 405 nm [1, 9] | sensitivity of the investigated HSV to the antiviral agent [1] | adsorbance values [2, 10] | adsorbance values [2, 11] | adsorbance values [2, 12] | adsorbance values [2, 13] | adsorbance values [2, 14] | adsorbance values [2, 15] | Serum concentrations used clinically [3] |
| --- | --- | --- | --- | --- | --- | --- | --- | --- | --- | --- | --- | --- | --- | --- |
| Nc1nc2c(ncn2COCCO)c(=O)[nH]1 [ACV, acyclovir] | 1.382 | 1.135 | 0.958 | 0.810 | 0.547 | 0.361 | high sensitivity | 1.608 | 1.615 | 1.594 | 1.179 | 1.475 | 1.415 |  |
| O=C(O)P(=O)(O)O [PFA, phosphonoformic acid] | 1.437 | 1.391 | 1.346 | 1.321 | 0.893 | 0.310 | a lower one | 1.487 | 1.502 | 0.656 | 0.216 | 0.092 | 0.083 | 100 μM or IU/ml |
